Active and inactive are the calls of the source.
What was measured:
[1] = system: HEK293; assay: NOD2 signaling inhibitors in MDP-stimulated cells, cell-based, uHTS, luminescence (AID 2001); type: functional; conditions: Homo sapiens
[2] = biological target: Nucleotide-binding oligomerization domain-containing protein 2 (Homo sapiens, UniProt Q9HC29); assay: inhibition of NOD2-driven NF-kB reporter – cell-based, luminescence, uHTS, HEK293 (AID 1566); type: functional
[3] = system: HEK293; assay: cells; type: functional, cell-based; conditions: Homo sapiens
[4] = system: HEK293; assay: cells; type: functional, cell-based; conditions: Homo sapiens; remark: listed apart in the source
[5] = system: HEK293; assay: cells; type: functional, cell-based; conditions: Homo sapiens; remark: listed apart in the source
[6] = system: HEK293; assay: inhibition of NOD1-driven NF-kB reporter – cell-based, luminescence, uHTS, primary screen (AID 1578); type: functional; conditions: Homo sapiens
[7] = system: Streptococcus sp. 'group A'; assay: Streptococcus pyogenes SK(-)GAS viability under kanamycin – luminescence, BacTiterGlo, confirmation, counter-screen for streptokinase expression inhibitor project, dose response (AID 1900); type: functional, organism-based
[8] = luciferase reporter signal suppression in cells – H4 neuroglioma cells, luminescence, dose response (AID 1990); type: functional, cell-based
[9] = Luminescence Cell-Based Dose Response HTS to Identify Inhibitors of 5'UTR Stem-Loop Driven Prion Protein mRNA Translation in H4 Neuroglioblastoma Cells. [Related pubchem assays: 1827 (Project Summary), 1813 (Primary HTS)]; type: functional
[10] = system: Streptococcus; assay: GAS UMAA2166 growth inhibition – luminescence, BacTiterGlo, counter-screen for streptokinase expression inhibitor project, dose response (AID 1915); type: functional, organism-based;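 note: potency for reduction of bacterial viability or growth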
[11] = alpha-synuclein stem-loop luciferase translation blockers – H4 neuroglioma cells, luminescence, confirmation (AID 1988); type: functional, cell-based
[12] = biological target: Melanin-concentrating hormone receptor 1 (Homo sapiens, UniProt Q99705); assay: Late-stage fluorescence-based counterscreen for antagonists of the G-protein coupled receptor 7 (GPR7): cell-based dose response assay to identify antagonists of the melanin-concentrating hormone receptor 1 (MCHR1). [Related pubchem assays (depositor defined):AID1861, AID1880, AID1952, AID2148, AID2251, AID2257, AID485339]; type: functional;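 note: stimulated with 30 nM MCH peptide agonist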
[13] = A549 cell cytotoxicity, dose response, cytotoxicity control, plate reader, cherry-pick, antagonist series (AID 743412); type: functional, cell-based
[14] = reduction of Shn3 3'UTR-driven luciferase in osteoblasts – cell-based, Clone20 osteoblasts, firefly luciferase, cherry-picked, dose response (AID 624132); type: functional;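 note: firefly luciferase luminescence from reporter carrying the Shn3 3'UTR in osteoblasts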
[15] = blockers of bursicon-stimulated LGR2 cAMP reporter – cell-based, HEK293, CRE-luciferase reporter, cherry pick, set 2, dose response (AID 743343); type: functional;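 note: transfected cells were stimulated with diluted bursicon conditioned medium after compound addition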
[16] = Shn3 3'UTR reporter signal decrease – cell-based, Clone20 osteoblasts, firefly luciferase, cherry-pick, set 2, Schnurri-3 inhibitor project, dose response (AID 720490); type: functional;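 note: actives lower the luminescence signal as inhibitors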
[17] = toxicity toward HepG2 liver cells – cell-based, plate reader, cherry-pick, antagonist series, cytotoxicity control, dose response (AID 743416); type: functional
[18] = biological target: Paired box protein Pax-8 (Homo sapiens, UniProt Q06710); assay: PAX8 transcriptional activity inhibition in RMG-I – RMG-I cells, luciferase, cherry-pick, dose response (AID 687027); type: functional, cell-based;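 note: luciferase reporter driven by Pax8 target thyroperoxidase promoter measured by SteadyGlo luminescence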
[19] = biological target: T1, Heat shock factor protein 1 (Mus musculus, UniProt P38532); assay: decrease of HSF1-responsive luciferase luminescence – cell-based, NIH3T3, dose retest, confirmation (AID 2382); type: functional;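 note: NIH3T3 fibroblasts with HSF1-driven luciferase reporter stressed by proteasome inhibitor MG132; luminescence from HSF1-driven luciferase expression after 8 hours of MG132 stress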
T1 sequence (P38532 whole entry): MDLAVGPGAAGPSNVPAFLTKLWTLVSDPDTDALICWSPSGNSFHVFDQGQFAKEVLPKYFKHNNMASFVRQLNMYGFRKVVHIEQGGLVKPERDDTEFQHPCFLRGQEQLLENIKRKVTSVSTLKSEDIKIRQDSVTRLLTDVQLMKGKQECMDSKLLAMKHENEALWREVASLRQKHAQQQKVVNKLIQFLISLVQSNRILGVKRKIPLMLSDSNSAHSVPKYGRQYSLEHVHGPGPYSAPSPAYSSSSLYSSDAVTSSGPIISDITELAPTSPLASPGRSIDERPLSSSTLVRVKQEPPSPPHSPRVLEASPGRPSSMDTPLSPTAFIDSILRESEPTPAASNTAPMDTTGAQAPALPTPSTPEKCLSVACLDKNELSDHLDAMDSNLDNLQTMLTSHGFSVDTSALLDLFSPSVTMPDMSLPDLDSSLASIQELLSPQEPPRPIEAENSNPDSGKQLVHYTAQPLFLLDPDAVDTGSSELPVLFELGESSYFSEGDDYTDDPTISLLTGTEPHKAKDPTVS

[20] = HEK-293T viability loss after treatment – luminescence, T-cell screen hits, cytotoxicity control for TCR NF-kB inhibitor project, dose response (AID 489026); type: functional, cell-based;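 note: cells exposed to compound about 14 hours before the viability readout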
[21] = blockade of melanocortin 4 receptor signaling – cell-based, plate reader, cherry pick, counter-screen for LGR2 antagonist project, dose response (AID 743444); type: functional;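 note: transfected HEK 293 cells stimulated with alpha-MSH peptide; potency of inhibitors of the alpha-MSH evoked signal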
[22] = Luminescence-based counterscreen assay for KLF5 inhibitors: dose response cell-based high throughput screening assay to identify cytotoxic compounds using the IEC-6 intestinal epithelial cell line. [Related pubchem assays: 1700 (Primary screen.), 1834 (Confirmation screen.), 1858 (Summary AID.), 1905 (Counterscreen.)]; type: functional
[23] = biological target: Heat shock cognate 71 kDa protein (Homo sapiens, UniProt P11142); assay: In Vitro Hsc70 Dose Response Fluorescence Polarization Assay. [Related pubchem assays: 1072 ]
[24] = biological target: T2, Estrogen receptor (Homo sapiens, UniProt P03372);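 note: potency for inhibiting coactivator peptide recruitment to the receptor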
T2 sequence (P03372 whole entry): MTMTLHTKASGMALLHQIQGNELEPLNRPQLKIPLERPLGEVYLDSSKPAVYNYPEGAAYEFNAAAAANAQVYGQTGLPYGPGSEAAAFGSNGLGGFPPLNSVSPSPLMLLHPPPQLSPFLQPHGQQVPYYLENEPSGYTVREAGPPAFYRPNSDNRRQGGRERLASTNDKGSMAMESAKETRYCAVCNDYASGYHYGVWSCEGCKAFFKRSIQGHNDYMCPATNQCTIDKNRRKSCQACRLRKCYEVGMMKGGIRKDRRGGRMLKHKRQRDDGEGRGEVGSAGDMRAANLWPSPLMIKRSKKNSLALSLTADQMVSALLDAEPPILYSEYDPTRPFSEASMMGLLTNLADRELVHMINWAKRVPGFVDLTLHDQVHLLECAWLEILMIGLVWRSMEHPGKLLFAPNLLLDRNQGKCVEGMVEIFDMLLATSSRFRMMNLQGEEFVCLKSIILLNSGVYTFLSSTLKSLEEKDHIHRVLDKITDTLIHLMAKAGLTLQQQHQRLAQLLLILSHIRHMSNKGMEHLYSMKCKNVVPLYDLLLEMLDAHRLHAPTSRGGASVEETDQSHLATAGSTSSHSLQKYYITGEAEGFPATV

[25] = biological target: Estrogen receptor beta (Homo sapiens, UniProt Q92731); assay: blockers of SRC-3 recruitment to ERβ – biochemical, ELISA, streptavidin-HRP readout, orthogonal assay, confirmation (AID 1060)
[26] = biological target: Induced myeloid leukemia cell differentiation protein Mcl-1 (Homo sapiens, UniProt Q07820); type: functional
[27] = biological target: T3, RNA-binding protein pos-1 (Caenorhabditis elegans, UniProt G5EF15); assay: disruptors of C. elegans POS-1 RNA interaction – biochemical, fluorescence polarization, dose response (AID 1964);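 note: purified POS-1 fused to maltose binding protein made in E. coli; potency of compounds blocking POS-1 binding to fluorescent RNA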
T3 sequence (G5EF15 whole entry): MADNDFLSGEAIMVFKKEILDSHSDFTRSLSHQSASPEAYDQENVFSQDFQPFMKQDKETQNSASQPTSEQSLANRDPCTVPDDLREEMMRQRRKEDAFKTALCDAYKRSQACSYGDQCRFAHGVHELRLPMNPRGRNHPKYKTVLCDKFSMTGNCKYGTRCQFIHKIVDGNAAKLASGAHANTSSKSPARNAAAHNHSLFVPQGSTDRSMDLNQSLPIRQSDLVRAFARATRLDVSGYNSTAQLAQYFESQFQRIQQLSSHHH

[28] = biological target: T4, Zinc finger protein mex-5 (Caenorhabditis elegans, UniProt Q9XUB2); assay: potency of MEX-5 RNA-binding blockers – biochemical, C. elegans, fluorescence polarization, dose response (AID 1960)
T4 sequence (Q9XUB2 whole entry): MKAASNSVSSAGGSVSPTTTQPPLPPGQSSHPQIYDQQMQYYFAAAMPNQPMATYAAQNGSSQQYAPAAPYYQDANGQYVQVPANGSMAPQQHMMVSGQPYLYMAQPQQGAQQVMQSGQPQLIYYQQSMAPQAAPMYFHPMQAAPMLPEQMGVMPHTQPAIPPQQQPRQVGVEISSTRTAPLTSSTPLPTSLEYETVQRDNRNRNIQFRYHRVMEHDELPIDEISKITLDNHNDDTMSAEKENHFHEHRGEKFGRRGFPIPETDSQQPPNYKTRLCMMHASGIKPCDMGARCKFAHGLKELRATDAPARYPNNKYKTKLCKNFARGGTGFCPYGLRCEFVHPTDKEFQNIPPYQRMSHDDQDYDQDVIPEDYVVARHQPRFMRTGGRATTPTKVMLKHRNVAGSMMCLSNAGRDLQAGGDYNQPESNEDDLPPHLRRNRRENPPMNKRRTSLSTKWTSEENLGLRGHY

[29] = biological target: Glyceraldehyde-3-phosphate dehydrogenase (Homo sapiens, UniProt P04406)
[30] = biological target: Heat shock 70 kDa protein 1A (Homo sapiens, UniProt P0DMV8); assay: inhibition of Hsp70 binding activity – biochemical, fluorescence polarization, SAR follow-up (AID 1072)
Heat shock 70 kDa protein 1A, sequence (P0DMV8 whole entry): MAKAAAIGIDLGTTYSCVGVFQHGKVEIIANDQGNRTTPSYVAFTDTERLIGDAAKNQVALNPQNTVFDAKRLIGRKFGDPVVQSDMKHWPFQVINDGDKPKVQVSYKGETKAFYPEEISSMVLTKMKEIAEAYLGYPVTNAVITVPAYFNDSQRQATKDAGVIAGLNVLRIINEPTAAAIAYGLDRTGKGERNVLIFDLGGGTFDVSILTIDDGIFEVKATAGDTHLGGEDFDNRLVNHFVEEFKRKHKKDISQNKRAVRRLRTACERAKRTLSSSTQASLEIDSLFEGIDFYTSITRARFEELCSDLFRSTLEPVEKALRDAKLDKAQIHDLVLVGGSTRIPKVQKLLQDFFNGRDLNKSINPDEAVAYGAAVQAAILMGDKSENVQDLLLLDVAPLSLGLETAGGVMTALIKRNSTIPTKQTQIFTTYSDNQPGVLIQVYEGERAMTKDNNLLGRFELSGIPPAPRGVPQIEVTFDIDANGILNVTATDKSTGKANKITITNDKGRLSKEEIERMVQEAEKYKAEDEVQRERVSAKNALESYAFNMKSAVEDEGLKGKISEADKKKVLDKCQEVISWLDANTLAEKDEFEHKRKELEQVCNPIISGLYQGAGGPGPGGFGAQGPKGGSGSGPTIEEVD

Nucleotide-binding oligomerization domain-containing protein 2, sequence (Q9HC29 whole entry, the tested form may be a part): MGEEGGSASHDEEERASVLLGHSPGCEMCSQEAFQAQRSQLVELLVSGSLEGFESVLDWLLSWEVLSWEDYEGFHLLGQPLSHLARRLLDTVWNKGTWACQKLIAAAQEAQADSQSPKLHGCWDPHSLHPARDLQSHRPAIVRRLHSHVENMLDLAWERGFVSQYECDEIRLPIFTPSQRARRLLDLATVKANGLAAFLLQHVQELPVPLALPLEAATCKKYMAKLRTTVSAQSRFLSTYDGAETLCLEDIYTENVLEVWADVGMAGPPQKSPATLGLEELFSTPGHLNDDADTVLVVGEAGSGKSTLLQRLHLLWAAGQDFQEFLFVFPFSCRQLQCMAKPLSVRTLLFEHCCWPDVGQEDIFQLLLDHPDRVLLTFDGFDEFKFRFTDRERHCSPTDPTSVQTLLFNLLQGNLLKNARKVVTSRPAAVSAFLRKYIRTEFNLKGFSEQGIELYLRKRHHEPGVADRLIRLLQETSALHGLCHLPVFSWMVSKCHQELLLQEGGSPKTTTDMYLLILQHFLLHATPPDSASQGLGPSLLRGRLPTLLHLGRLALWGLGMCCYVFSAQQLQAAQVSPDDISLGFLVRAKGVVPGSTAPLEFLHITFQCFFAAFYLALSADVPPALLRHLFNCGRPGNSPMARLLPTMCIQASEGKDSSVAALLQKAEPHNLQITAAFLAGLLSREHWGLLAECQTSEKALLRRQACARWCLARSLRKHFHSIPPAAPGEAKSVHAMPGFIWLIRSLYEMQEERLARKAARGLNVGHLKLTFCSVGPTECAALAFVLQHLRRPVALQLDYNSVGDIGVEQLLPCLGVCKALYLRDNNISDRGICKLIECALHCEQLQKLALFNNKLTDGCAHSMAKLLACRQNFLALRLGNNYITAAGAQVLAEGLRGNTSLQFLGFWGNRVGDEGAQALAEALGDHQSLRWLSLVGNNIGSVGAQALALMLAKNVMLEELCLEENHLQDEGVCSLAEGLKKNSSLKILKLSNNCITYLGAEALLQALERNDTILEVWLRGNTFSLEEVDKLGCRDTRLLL
Estrogen receptor beta, sequence (Q92731 whole entry): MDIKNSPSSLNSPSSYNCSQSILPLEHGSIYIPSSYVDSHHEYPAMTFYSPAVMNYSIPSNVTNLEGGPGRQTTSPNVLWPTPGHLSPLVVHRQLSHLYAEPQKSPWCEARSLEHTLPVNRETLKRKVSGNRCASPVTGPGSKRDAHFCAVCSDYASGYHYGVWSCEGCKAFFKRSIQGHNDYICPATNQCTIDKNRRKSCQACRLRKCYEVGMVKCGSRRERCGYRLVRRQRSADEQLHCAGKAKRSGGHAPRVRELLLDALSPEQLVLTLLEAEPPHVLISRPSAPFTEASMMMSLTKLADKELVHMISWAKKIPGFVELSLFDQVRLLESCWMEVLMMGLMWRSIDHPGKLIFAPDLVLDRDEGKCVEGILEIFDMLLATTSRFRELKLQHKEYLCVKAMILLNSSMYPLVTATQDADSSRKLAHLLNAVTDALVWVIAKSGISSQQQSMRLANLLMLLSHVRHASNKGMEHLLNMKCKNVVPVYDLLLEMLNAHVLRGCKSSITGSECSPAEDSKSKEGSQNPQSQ
Induced myeloid leukemia cell differentiation protein Mcl-1, sequence (Q07820 whole entry, the tested form may be a part): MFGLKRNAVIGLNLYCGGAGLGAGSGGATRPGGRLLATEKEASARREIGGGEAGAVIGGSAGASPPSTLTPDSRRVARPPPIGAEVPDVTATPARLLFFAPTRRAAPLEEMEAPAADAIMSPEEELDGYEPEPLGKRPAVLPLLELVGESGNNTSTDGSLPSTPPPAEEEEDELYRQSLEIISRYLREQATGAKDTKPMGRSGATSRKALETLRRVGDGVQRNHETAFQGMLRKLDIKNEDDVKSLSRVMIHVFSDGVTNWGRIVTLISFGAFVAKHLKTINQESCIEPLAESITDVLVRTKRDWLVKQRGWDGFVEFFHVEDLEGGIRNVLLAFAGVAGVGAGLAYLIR
Melanin-concentrating hormone receptor 1, sequence (Q99705 whole entry): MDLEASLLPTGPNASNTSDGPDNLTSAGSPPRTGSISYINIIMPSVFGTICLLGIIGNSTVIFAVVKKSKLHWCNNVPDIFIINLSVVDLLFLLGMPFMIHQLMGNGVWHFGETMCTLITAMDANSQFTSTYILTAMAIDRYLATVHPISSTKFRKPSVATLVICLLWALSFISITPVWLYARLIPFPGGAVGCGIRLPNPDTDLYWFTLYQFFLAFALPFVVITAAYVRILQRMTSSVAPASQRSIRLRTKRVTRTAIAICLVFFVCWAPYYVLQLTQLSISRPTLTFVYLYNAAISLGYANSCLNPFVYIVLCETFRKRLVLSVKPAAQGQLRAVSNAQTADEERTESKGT
Glyceraldehyde-3-phosphate dehydrogenase, sequence (P04406 whole entry): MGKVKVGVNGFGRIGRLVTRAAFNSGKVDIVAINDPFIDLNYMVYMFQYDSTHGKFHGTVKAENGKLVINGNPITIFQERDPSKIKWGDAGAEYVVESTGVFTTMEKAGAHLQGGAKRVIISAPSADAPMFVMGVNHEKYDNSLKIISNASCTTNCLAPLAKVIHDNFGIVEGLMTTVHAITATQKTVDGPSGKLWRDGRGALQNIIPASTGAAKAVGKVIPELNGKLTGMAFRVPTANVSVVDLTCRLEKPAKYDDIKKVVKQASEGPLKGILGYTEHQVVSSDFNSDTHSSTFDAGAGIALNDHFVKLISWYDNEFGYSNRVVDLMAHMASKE
Heat shock cognate 71 kDa protein, sequence (P11142 whole entry): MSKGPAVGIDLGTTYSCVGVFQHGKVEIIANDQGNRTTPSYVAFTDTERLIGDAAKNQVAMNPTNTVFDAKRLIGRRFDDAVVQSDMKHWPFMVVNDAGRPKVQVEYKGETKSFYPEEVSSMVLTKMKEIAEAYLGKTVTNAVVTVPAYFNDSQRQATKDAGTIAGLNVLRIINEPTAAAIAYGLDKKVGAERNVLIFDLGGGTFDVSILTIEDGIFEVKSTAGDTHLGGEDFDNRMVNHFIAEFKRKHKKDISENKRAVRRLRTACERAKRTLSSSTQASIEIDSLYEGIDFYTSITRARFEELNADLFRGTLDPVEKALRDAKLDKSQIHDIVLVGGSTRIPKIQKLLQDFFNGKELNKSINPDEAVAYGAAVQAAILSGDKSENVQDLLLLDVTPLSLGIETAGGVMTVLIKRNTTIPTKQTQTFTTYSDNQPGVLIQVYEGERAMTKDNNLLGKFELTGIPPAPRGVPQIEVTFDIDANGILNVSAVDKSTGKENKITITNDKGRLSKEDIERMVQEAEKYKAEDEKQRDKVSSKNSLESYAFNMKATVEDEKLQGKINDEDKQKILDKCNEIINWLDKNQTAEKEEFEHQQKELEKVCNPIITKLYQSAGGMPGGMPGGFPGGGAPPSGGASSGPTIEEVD
Paired box protein Pax-8, sequence (Q06710 whole entry): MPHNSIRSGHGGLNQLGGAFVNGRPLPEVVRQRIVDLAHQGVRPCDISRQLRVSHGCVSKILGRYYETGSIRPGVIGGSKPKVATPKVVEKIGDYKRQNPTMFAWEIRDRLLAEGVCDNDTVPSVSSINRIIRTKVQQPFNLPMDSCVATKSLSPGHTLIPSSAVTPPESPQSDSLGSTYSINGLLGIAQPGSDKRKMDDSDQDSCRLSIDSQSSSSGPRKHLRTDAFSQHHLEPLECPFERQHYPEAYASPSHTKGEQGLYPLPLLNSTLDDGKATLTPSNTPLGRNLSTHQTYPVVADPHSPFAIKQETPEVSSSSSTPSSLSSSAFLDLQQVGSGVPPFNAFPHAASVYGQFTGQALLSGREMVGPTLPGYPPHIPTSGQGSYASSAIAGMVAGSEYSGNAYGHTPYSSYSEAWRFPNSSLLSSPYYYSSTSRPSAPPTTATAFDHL

## Cn1c(Sc2ccc(Cl)cc2)c(C=O)c2ccccc21
[1]
  IC50: 1.15 µM (active)
[2]
  EC50: 2.17 µM (active)
[3]
  IC50: > 20 µM (inactive)
[4]
  IC50: > 20 µM (inactive)
[5]
  IC50: 0.748 µM (active)
[6]
  EC50: 1.63 µM (active)

## Cc1ccc(OCCn2c(NC(=O)c3ccco3)nc3ccccc32)cc1
[7]
  EC50: 1.6 µM (active)
[8]
  EC50: 13.1 µM (active)
[1]
  IC50: 2.41 µM (active)
[2]
  EC50: > 20 µM (inactive)
[3]
  IC50: > 20 µM (inactive)
[4]
  IC50: > 20 µM (inactive)
[5]
  IC50: 4.87 µM (active)
[9]
  EC50: 15.8 µM (active)
[10]
  EC50: 3.87 µM (active)
[11]
  EC50: 10.3 µM (active)
[6]
  EC50: 3.15 µM (active)

## COc1ccc(Oc2c(Cl)cnn(-c3cc(C)ccc3C)c2=O)cc1
[12]
  IC50: 12.2 µM (inactive)

## CC(C)(C)C(=O)Nc1ccc(NC(=O)c2ccco2)nc1
[13]
  AC50: > 52 µM (inactive)
[14]
  AC50: 1.17 µM (active)
[15]
  AC50: 0.243 µM (active)
[16]
  AC50: 2.64 µM (active)
[17]
  AC50: > 52 µM (inactive)
[18]
  AC50: 1.26 µM (active)
[19]
  EC50: < 0.16 µM (active)
[20]
  IC50: > 80 µM (inactive)
[21]
  AC50: 0.245 µM (active)
[22]
  IC50: > 39.8 µM (not active)

## O=C(O)C1Nc2c(C(=O)N3CCOCC3)cccc2C2C=CCC12 (stereo unspecified)
[23]
  IC50: > 100 µM (not active)
[24]
  IC50: 15.9 µM (active)
[25]
  IC50: 0.0407 µM (not active)
[26]
  IC50: 2.78 µM (not active)
[27]
  EC50: 45.1 µM (active)
[28]
  EC50: 21.3 µM (inconclusive)
[29]
  IC50: > 100 µM (not active)
[30]
  IC50: > 100 µM (not active)

Reference: ChEMBL document CHEMBL1201862, “PubChem BioAssay data set” (2004)
